Assay results taken from patent US6777405B2, “Detection and treatment of duplex polynucleotide damage” (California Institute of Technology, priority 1997, dated 2004).

Columns and labels:
[1] = tested on: DNA duplexes having a single base pair mismatch (SEQ ID NO:1/SEQ ID NO:2); assay: Photocleavage of 17-mer DNA duplexes with a single base pair mismatch (365 nm, PAGE); format: biochemical
Protocol: A set of DNA duplexes was prepared having the following sequence:
3′-[…]-5′(SEQ ID NO:1)
5′-[…]-3′(SEQ ID NO:2),
where X and Y were varied to provide A-T, G-C, and the following mismatches: C-C, C-A, T-T, A-A, T-C, T-G, G-A, and G-G. All oligonucleotides were prepared using standard phosphoramidite chemistry, and were purified by reverse phase HPLC. The oligonucleotides were 5′ end-labeled with γ-^32P ATP (Dupont-NEN) and T4 polynucleotide kinase (New England Biolabs).
Duplexes (10 μM) were incubated with Δ or Λ [Rh(bpy)2(chrysi)]^3+(1 μM in 50 mM Tris, 20 mM NaOAc, 18 mM NaCl, pH 7.0) for 11 minutes, then irradiated for 13 min at 365 nm using an Oriel HgXe arc lamp. The products were analyzed by PAGE (20%, denaturing), imaged using a Molecular Dynamics Phosphorimager. The lanes labeled A+G and C+T are standard Maxam-Gilbert sequencing reactions: the remaining columns show cleavage (or lack of cleavage) for each tested mismatch with each enantiomer. […] Here, cleavage occurred to the 3′ side of the mismatch site. […] Unlike the other recognized mismatches, the cleavage 3′ to C-A results in two products having different gel mobility, possibly the result of chemically different polymer termini. The cleavage of A-A was also distinctive.

[2] = tested on: mismatch-sequence context combinations in DNA duplexes; assay: Photocleavage with systematically changed bases 5′ and 3′ of the mismatch site; format: biochemical; details: flanking bases 5′ and 3′ of the mismatch systematically changed
[3] = tested on: B-form DNA (33mer correctly matched hairpin, 25mer B-DNA); assay: Photocleavage on correctly matched hairpin and competitive titration with unlabeled B-DNA; format: binding
Protocol: (§1) The thermodynamic binding constant was determined to be 8.4 (±1.0)×10^5 M^−1. Similar DNA photocleavage titrations at other mismatch sites have measured the affinity of Δ [Rh(bpy)2(chrysi)]^3+ between 1×10^7 and 3×10^5 M^−1. To examine the level of selectivity the average binding constant of Δ[Rh(bpy)2(chrysi)]^3+ to B-form DNA was also determined. Photocleavage on a 33mer correctly matched hairpin and competitive titration with unlabeled 25mer B-DNA yielded a value of 4 (±2)×10^4 M^−1 for the average non-specific binding affinity.

[4] = tested on: hairpin DNA oligonucleotide (SEQ ID NO:3) having a single C-C mismatch; assay: Photocleavage titration on hairpin DNA with single C-C mismatch; details: 313 or 365 nm, Rh complex at 0.10× DNA concentration, single binding site model fit
Protocol: A hairpin DNA oligonucleotide was synthesized with the sequence:
5′-[…]-3′ (SEQ ID NO:3), having a single C-C mismatch. The hairpin was photocleaved as described in Example 2 above with Δ[Rh(bpy)2(chrysi)]^3+ at either 313 nm or 365 nm for 7.5 to 15 min. Hairpin DNA concentration was varied from 3×10^−10 M to 1×10^−4 M, with the Rh complex used at 0.10× the DNA concentration. The cleavage products were eluted through 20% denaturing polyacrylamide gels, and analyzed using a Molecular Dynamics Phosphorimager and ImageQuant software. Cleavage was observed 3′ to the C-C mismatch on both sides of the hairpin: only the cleavage band closest to the end label was quantitated. Data from multiple trials was normalized (open circles) and fit to a standard single binding site binding model (solid line).
as §1

[5] = duplex 10 μM, complex 1 μM, 13 min at 365 nm
[6] = duplex 10 μM, complex 1 μM, 13 min at 365 nm, compared with C-C

Substance	photocleavage at A-A mismatch, base 3′ to the site [1, 5]	photocleavage at the A-A site itself [1, 5]	photocleavage at C-A mismatch ([1]; duplex 10 μM, complex 1 μM, 13 min at 365 nm, at the mismatched C and the base 3′ to the mismatch site)	photocleavage at T-C mismatch [1, 6]	photocleavage at T-T mismatch [1, 6]	photocleavage at C-C mismatch ([1]; duplex 10 μM, complex 1 μM, pH 7.0, irradiated 13 min at 365 nm, cleavage to the 3′ side of the mismatch site)	mismatch-sequence context combinations at which photocleavage was observed (count) [2]	mismatch-sequence context combinations at which photocleavage was observed (percent) [2] [%]	average non-specific binding affinity [3]	thermodynamic binding constant [4]	mismatch pairs cleaved among all tested pairs ([1]; A-T, G-C, C-C, C-A, T-T, A-A, T-C, T-G, G-A, G-G tested)	photocleavage at A-A mismatch relative to the other enantiomer [1, 5]
Δ-[Rh(bpy)2(chrysi)]Cl3 [Δ[Rh(bpy)2(chrysi)]^3+]	strong cleavage	a small amount of cleavage	Strong cutting	less intense cleavage	less intense cleavage	strongest cleavage intensity	83 of 104	80	4 (±2)×10^4 M^−1	8.4 (±1.0)×10^5 M^−1		
Λ-[Rh(bpy)2(chrysi)]Cl3 [Λ enantiomer]											The A-A mismatch is the only pair cleaved	weaker cleavage
